Melting point data for 15 compounds are collected here from patent US20090281114A1, “INDOLYLALKYL DERIVATIVES OF PYRIMIDINYLPIPERAZINE AND METABOLITES THEREOF FOR TREATMENT OF ANXIETY, DEPRESSION, AND SEXUAL DYSFUNCTION” (Fabre-Kramer Pharmaceuticals, Inc., priority 2008, published 2009).

The structures appear in SMILES notation. Structures can show the parent of a compound that is named as a salt.

As for `COc1cncnc1N1CCN(CCCc2c[nH]c3c(F)cc(F)cc23)CC1` (as salt: HCl) [Example 76], the melting point (commonly the temperature of the solid-liquid transition) is > 250 °C (dec.).

Compound `COc1cncnc1N1CCN(CCCc2c[nH]c3ccc(CCS(C)(=O)=O)cc23)CC1C` (stereo not drawn) (as salt: salt) [Example 51, 4-(5-Methoxy-4-pyrimidinyl)-1-[3-[5-[2-(methylsulfonyl)ethyl]-1H-indol-3-yl]propyl]-3-methylpiperazine] showed a melting point of 220 to 223 °C.

For the compound `CCC(CCc1c[nH]c2ccccc12)N1CCN(c2ncncc2OC)CC1` (stereo not drawn) (as salt: salt) [Example 54, 3-[3-[4-(5-Methoxy-4-pyrimidinyl)-1-piperazinyl]pentyl]indole], the melting point is 145 °C (dec.).

In turn, `CCOc1cncnc1N1CCN(CCCc2c[nH]c3ccccc23)CC1.Cl.O` (hydrate or solvate) [Example 52, 4-(5-Ethoxy-4-pyrimidinyl)-1-[3-(1H-indol-3-yl)propyl]piperazine hydrochloride hydrate] gave a melting point of over 230 °C.

Turning to `COc1cncnc1N1CCN(CCCc2c[nH]c3ccc(CNC(C)=O)cc23)CC1` (hydrate or solvate) [Example 40, 1-[[5-[[(Acetyl)amino]methyl]-1H-indol-3-yl]propyl]-4-(5-methoxy-4-pyrimidinyl)piperazine], the melting point fell in the range of 169 to 174 °C.

In turn, `COc1cncnc1N1CCN(CCCc2c[nH]c3ccc(N4CCCC4=O)cc23)CC1.O=C(O)C(=O)O` had a melting point of 100 to 101 °C.

With `COc1cncnc1N1CCN(CCCc2c[nH]c3ccc(N)cc23)CC1` (as salt: salt) [Example 43, 3-[3-[4-(5-Methoxy-4-pyrimidinyl)-1-piperazinyl]propyl]-5-aminoindole], the melting point is 192 °C (dec.).

As to `COc1cncnc1N1CCN(CCCc2c[nH]c3ccc(CNS(C)(=O)=O)cc23)CC1` (as salt: hydrochloride) (hydrate or solvate) [Example 31, 4-(5-Methoxy-4-pyrimidinyl)-1-[[5-[[(methylsulfonyl)amino]methyl]-1H-indol-3-yl]propyl]piperazine], the melting point is 204 to 206 °C.

`COc1cncnc1N1CCN(CCC(C)c2c[nH]c3ccccc23)CC1` (stereo not drawn) (as salt: hydrochloride) [Example 53, 1-[3-(1H-indol-3-yl)butyl]-4-(5-methoxy-4-pyrimidinyl)piperazine]: the melting point is 169 to 172 °C (dec.).

Consider `COc1cncnc1N1CCN(CCCc2c[nH]c3ccc(O)cc23)CC1` (as salt: hydrochloride) [Example 55, 1-[3-(5-Hydroxy-1H-indol-3-yl)propyl]-4-(5-methoxy-4-pyrimidinyl)piperazine], for which the melting point turned out to be 215 °C.

Regarding `CCS(=O)(=O)Nc1ccc2[nH]cc(CCCN3CCN(c4ncncc4OC)CC3)c2c1` (as salt: HCl) [Example 67], the melting point was 140 to 145 °C.

`CCS(=O)(=O)N(C)c1ccc2[nH]cc(CCCN3CCN(c4ncncc4OC)C(C)C3)c2c1` (stereo not drawn) (as salt: HCl) [Example 69] yielded a melting point of 205 to 207 °C.

Turning to `COc1cncnc1N1CCN(CCCc2c[nH]c3ccc(CS(=O)(=O)N(C)C)cc23)CC1` (as salt: hydrochloride) (hydrate or solvate) [Example 30, 1-[3-[5-[[(Dimethylamino)sulfonyl]methyl]-1H-indol-3-yl]propyl]-4-(5-methoxy-4-pyrimidinyl)piperazine], the melting point is 210 °C (dec.).

Consider `CCS(=O)(=O)Nc1ccc2[nH]cc(CCCN3CCN(c4ncncc4OC)C(C)C3)c2c1` (stereo not drawn) (as salt: HCl) (hydrate or solvate) [Example 70, 1-[3-(5-Ethanesulfonylamino-1H-indol-3-yl)propyl]-4-(5-methoxy-4-pyrimidinyl)-3-methylpiperazine], for which the melting point lay in the range of 212 to 214 °C.

As for `COc1cncnc1N1CCN(CCCc2c[nH]c3ccc(OCC#N)cc23)CC1` (as salt: hydrochloride) [Example 45, 3-[3-[4-(5-Methoxy-4-pyrimidinyl)-1-piperazinyl]propyl]-5-(cyanomethyl)oxyindole], the melting point is 198 to 200 °C (dec.).
